Experimental data taken from patent US20230124862A1, “BISMUTH THIOL COMPOUNDS AND COMPOSITIONS AND METHODS OF TREATING MICROBIAL CO-INFECTIONS” (Microbion Corporation, priority 2020, published 2023).
Values after ≈ are worked out from the molar mass of the structure shown. Values joined by “and” are separate entries in the source; they are usually repeats but may differ in a detail not shown here. Equal entries are not always repeated. Where two headings read alike, the source gives them in different places.

Columns and labels:
[1] = test system: Gram-negative organisms (P. aeruginosa, E. coli, A. baumannii, H. influenzae); test: Broth microdilution MIC with pulmonary surfactant (Survanta); format: cell-based; conditions: evaluated organisms, 1-10% Survanta
[2] = test system: MucilAir fully differentiated human airway epithelium
[3] = format: in vivo, beagle dogs; conditions: dog, per animal and Grp Avg, sampling times not given
Description: Once adequately conditioned to the restraint device and face-masks, the animals are individually exposed to the test article aerosols. Animals receive a single face-mask inhalation exposure in a ramp study design to test article aerosols for up to 60 min. Animal observations during and post exposure determine the tolerance of inhaled BisEDT aerosols.
Blood Collections and Bioanalytical Analysis: Blood are collected for pharmacokinetic (PK) analysis prior to exposure, then at 4 hr (±5 min) post exposure, and again on Day 1, Day 2, Day 7 (pre- and 4 hr (±5 min)-post exposure), Day 8, Day 9, Day 10, Day 11, Day 12, Day 13, and Day 14. A total of 0.25 mL is collected at each timepoint. No PK blood is collected from the vehicle control (Group 1) animals; only animals exposed to BisEDT have blood collected for PK analysis. Collected samples are flash frozen without processing for shipment to Medpace for bioanalytical analysis. Additional blood is collected from all animals in all groups for hematology (1 mL) and clinical chemistry (1 mL) at baseline, Day 7 (pre-exposure), and again at euthanasia. Blood (2-2 mL) is collected from all animals at necropsy for coagulation analysis (d-Dimer, fibrinogen, PT, and PTT).
For hematology analyses, whole blood (1 ml) will be collected with vacutainers containing K3EDTA as an anticoagulant.
Hematology samples are analyzed by automated (ADVIA™ 120 Hematology System, Siemens Medical Solutions Diagnostics, Tarrytown, N.Y.) analyses. Disposition will be recorded on the sample processing form.

[4] = format: in vivo, F344 rats; conditions: rat, inhalation
Description: Inhalation Exposure: The initial exposure of BisEDT (Bismuth-1,2-ethanedithiol) was formulated as a […] at 100 mg/mL in suspension in 0.5% Tween 80, 10 mM sodium phosphate, pH 7.4, in NaCl (adjusted to approximately 300 mOsm). Aerosols were generated with a commercial compressed air jet nebulizer, Pad LC Plus, operated with an inlet pressure of 20 psi. The aerosols were transitioned into a rodent nose-only inhalation exposure system. The exposure system was operated with an inlet air flow of −5.2 L/min and an exhaust air flow of −5 L/min.

Pseudomonas aeruginosa = test: Broth microdilution MIC (Example 12); format: cell-based
[5] = test system: P. aeruginosa and A. baumannii; conditions: P. aeruginosa (MMX 103), QC; cited from earlier work
[6] = Group 2 (55-56 ug/kg lung deposited)
[7] = Group 4 (176-197 ug/kg lung deposited)

C1C[S][Bi]([S]CC[S][Bi]2[S]CC[S]2)[S]1 [BisEDT, Bismuth-1,2-ethanedithiol]
effect of Survanta addition on MIC values [1]: largely unaffected
Morphology after exposure ([2]; BisEDT in solution, all tested concentrations and time points): No morphology changes were observed
Morphology after exposure ([2]; solid in dextran, 3.33 μg/cm^2, 24 and 48 h): Cells were rounded and opaque at the periphery of inserts
Morphology after exposure ([2]; solid in dextran, 0.033 and 0.33 μg/cm^2): No morphological modifications were observed
Morphology after exposure ([2]; solid, 1 μg/cm^2, 1 hour and 8 hour): no important morphological changes were observed
Morphology after exposure ([2]; solid, 1 μg/cm^2, 24 h): the epithelial cells on 2 inserts out of 3 were dead
Morphology after exposure ([2]; solid, 1 μg/cm^2, 48 h): the epithelial cells on all 3 inserts were dead
BASO [3, 6]: 0.12 ^3/uL (2×) and 0.15 ^3/uL and 0.08 ^3/uL (2×) and 0.11 ^3/uL and 0.10 ^3/uL and 0.07 ^3/uL and 0.13 ^3/uL
EOS [3, 6]: 0.30 ^3/uL and 0.45 ^3/uL and 0.39 ^3/uL and 0.14 ^3/uL and 0.09 ^3/uL and 0.06 ^3/uL and 0.22 ^3/uL and 0.27 ^3/uL and 0.23 ^3/uL
HCT [3, 6]: 45.8% and 43.1% and 41.8% and 49.0% and 43.7% and 42.9% and 47.4% and 43.4% and 42.4%
HGB [3, 6]: 15.6 g/dL and 15.0 g/dL (3×) and 14.2 g/dL and 16.4 g/dL and 14.3 g/dL (2×) and 16.0 g/dL
LUC [3, 6]: 0.01 ^3/uL (5×) and 0.02 ^3/uL (4×)
LYMP [3, 6]: 2.81 ^3/uL and 2.73 ^3/uL and 2.09 ^3/uL and 2.27 ^3/uL and 2.82 ^3/uL and 2.61 ^3/uL and 2.54 ^3/uL and 2.78 ^3/uL and 2.35 ^3/uL
MCH [3, 6]: 22.8 pg (2×) and 23.2 pg (2×) and 22.7 pg and 22.3 pg (2×) and 21.9 pg and 23.0 pg
MCHC [3, 6]: 34.1 g/dL (2×) and 34.9 g/dL and 33.4 g/dL and 34.4 g/dL and 33.2 g/dL and 33.8 g/dL and 34.7 g/dL and 33.7 g/dL
MCV [3, 6]: 67.0 fL and 66.4 fL and 66.5 fL and 69.5 fL and 64.8 fL and 66.0 fL and 68.3 fL and 65.6 fL and 66.3 fL
MONO [3, 6]: 0.63 ^3/uL and 0.67 ^3/uL and 0.53 ^3/uL and 0.50 ^3/uL and 0.51 ^3/uL (2×) and 0.57 ^3/uL and 0.59 ^3/uL and 0.52 ^3/uL
NEUT [3, 6]: 5.31 ^3/uL and 5.11 ^3/uL and 2.88 ^3/uL and 3.96 ^3/uL and 4.26 ^3/uL and 4.83 ^3/uL and 4.64 ^3/uL and 4.69 ^3/uL and 3.86 ^3/uL
PLT [3, 6]: 197 ^3/uL and 166 ^3/uL and 161 ^3/uL and 206 ^3/uL and 294 ^3/uL and 304 ^3/uL and 201.5 ^3/uL and 230.0 ^3/uL and 232.5 ^3/uL
RBC [3, 6]: 6.83 ^6/uL and 6.49 ^6/uL and 6.28 ^6/uL and 7.05 ^6/uL and 6.74 ^6/uL and 6.50 ^6/uL and 6.94 ^6/uL and 6.62 ^6/uL and 6.39 ^6/uL
RET % [3, 6]: 0.34% and 0.55% and 0.60% and 0.65% and 0.25% and 0.31% and 0.50% and 0.40% and 0.46%
WBC [3, 6]: 9.18 ^3/uL and 9.13 ^3/uL and 5.99 ^3/uL and 6.99 ^3/uL and 7.77 ^3/uL and 8.10 ^3/uL and 8.09 ^3/uL and 8.45 ^3/uL and 7.05 ^3/uL
BASO [3, 7]: 0.07 ^3/uL (3×) and 0.04 ^3/uL (2×) and 0.09 ^3/uL (3×) and 0.06 ^3/uL and 0.08 ^3/uL (2×) and 0.05 ^3/uL and 0.10 ^3/uL (3×)
EOS [3, 7]: 0.48 ^3/uL and 0.50 ^3/uL and 0.35 ^3/uL and 0.95 ^3/uL and 0.77 ^3/uL and 0.47 ^3/uL and 0.72 ^3/uL and 0.64 ^3/uL and 0.41 ^3/uL and 0.18 ^3/uL and 0.13 ^3/uL and 0.19 ^3/uL (2×) and 0.21 ^3/uL and 0.17 ^3/uL
HCT [3, 7]: 42.7% and 47.5% and 45.4% and 41.9% and 50.6% and 47.6% and 42.30% and 49.05% and 46.50% and 39.8% and 40.7% and 37.1% and 44.2% and 38.45% and 42.45%
HGB [3, 7]: 14.8 g/dL and 16.0 g/dL and 14.6 g/dL and 14.7 g/dL and 16.6 g/dL and 15.4 g/dL and 14.75 g/dL and 16.30 g/dL and 15.00 g/dL and 13.7 g/dL and 13.8 g/dL and 12.8 g/dL and 14.3 g/dL and 13.25 g/dL and 14.05 g/dL
LUC [3, 7]: 0.01 ^3/uL (7×) and 0.02 ^3/uL (8×)
LYMP [3, 7]: 2.68 ^3/uL and 3.18 ^3/uL and 2.78 ^3/uL (2×) and 2.88 ^3/uL and 3.04 ^3/uL and 2.82 ^3/uL and 3.11 ^3/uL and 2.80 ^3/uL and 2.46 ^3/uL and 2.59 ^3/uL and 2.32 ^3/uL and 2.87 ^3/uL and 2.39 ^3/uL and 2.73 ^3/uL
MCH [3, 7]: 23.0 pg and 23.4 pg and 22.9 pg (2×) and 22.8 pg and 23.1 pg and 22.90 pg (2×) and 23.25 pg and 24.1 pg and 20.9 pg and 21.0 pg and 24.2 pg and 22.55 pg (2×)
MCHC [3, 7]: 34.7 g/dL and 33.6 g/dL and 32.2 g/dL and 35.2 g/dL and 32.8 g/dL and 32.4 g/dL (2×) and 34.95 g/dL and 33.20 g/dL (2×) and 32.30 g/dL and 34.4 g/dL and 34.0 g/dL and 34.6 g/dL and 34.50 g/dL
MCV [3, 7]: 66.3 fL and 69.7 fL and 71.3 fL and 64.8 fL and 70.4 fL and 70.9 fL and 65.55 fL and 70.05 fL and 71.10 fL and 70.1 fL and 61.6 fL and 60.8 fL and 74.7 fL and 65.45 fL and 68.15 fL
MONO [3, 7]: 0.39 ^3/uL (2×) and 0.37 ^3/uL (2×) and 0.49 ^3/uL and 0.50 ^3/uL (2×) and 0.44 ^3/uL (2×) and 0.38 ^3/uL and 0.73 ^3/uL and 0.45 ^3/uL and 0.61 ^3/uL and 0.59 ^3/uL and 0.56 ^3/uL
NEUT [3, 7]: 4.61 ^3/uL and 5.96 ^3/uL (2×) and 6.30 ^3/uL and 5.98 ^3/uL and 5.95 ^3/uL and 6.74 ^3/uL and 5.30 ^3/uL and 6.52 ^3/uL and 6.73 ^3/uL and 4.11 ^3/uL and 3.60 ^3/uL and 7.39 ^3/uL and 5.17 ^3/uL and 5.75 ^3/uL
PLT [3, 7]: 208 ^3/uL and 214 ^3/uL and 213 ^3/uL and 246 ^3/uL and 238 ^3/uL and 251 ^3/uL and 227.00 ^3/uL and 226.00 ^3/uL and 232.00 ^3/uL and 257 ^3/uL and 308 ^3/uL and 313 ^3/uL and 248 ^3/uL and 285.00 ^3/uL and 278.00 ^3/uL
RBC [3, 7]: 6.44 ^6/uL and 6.81 ^6/uL and 6.37 ^6/uL and 6.46 ^6/uL and 7.19 ^6/uL and 6.71 ^6/uL and 6.45 ^6/uL and 7.00 ^6/uL and 6.54 ^6/uL and 5.68 ^6/uL and 6.61 ^6/uL and 6.11 ^6/uL and 5.92 ^6/uL and 5.90 ^6/uL and 6.27 ^6/uL
RET % [3, 7]: 0.41% and 0.33% and 0.58% and 0.27% and 0.62% and 0.43% and 0.34% and 0.48% and 0.51% (2×) and 1.07% and 0.88% and 0.83% and 0.79% and 0.86%
WBC [3, 7]: 8.23 ^3/uL and 10.09 ^3/uL and 9.86 ^3/uL and 10.41 ^3/uL and 10.37 ^3/uL and 10.50 ^3/uL and 9.32 ^3/uL (2×) and 10.23 ^3/uL and 10.18 ^3/uL and 10.21 ^3/uL and 7.45 ^3/uL and 6.63 ^3/uL and 11.18 ^3/uL and 8.42 ^3/uL
Mean BisEDT Conc, whole blood ([4]; dose 47 μg/kg, 8 hr): 114 ng/mL
Mean BisEDT Conc, whole blood ([4]; dose 47 μg/kg, 12 hr): 98 ng/mL
Mean BisEDT Conc, whole blood ([4]; dose 47 μg/kg, 24 hr): 282 ng/mL
Mean BisEDT Conc, whole blood ([4]; dose 47 μg/kg, 30 hr): 373 ng/mL
Mean BisEDT Conc, whole blood ([4]; dose 124 μg/kg, 8 hr): 247 ng/mL
Mean BisEDT Conc, whole blood ([4]; dose 124 μg/kg, 12 hr): 187 ng/mL
Mean BisEDT Conc, whole blood ([4]; dose 124 μg/kg, 24 hr): 571 ng/mL
Mean BisEDT Conc, whole blood ([4]; dose 124 μg/kg, 30 hr): 668 ng/mL
Mean BisEDT Conc, whole blood ([4]; dose 400 μg/kg, 8 hr): 1701 ng/mL
Mean BisEDT Conc, whole blood ([4]; dose 400 μg/kg, 12 hr): 1252 ng/mL
Mean BisEDT Conc, whole blood ([4]; dose 400 μg/kg, 24 hr): 2700 ng/mL
Mean BisEDT Conc, whole blood ([4]; dose 400 μg/kg, 30 hr): 2738 ng/mL
Mean BisEDT Conc, whole blood ([4]; dose 3000 μg/kg, 1 hr): 485 ng/mL
Mean BisEDT Conc, whole blood ([4]; dose 3000 μg/kg, 2 hr): 2504 ng/mL
Mean BisEDT Conc, whole blood ([4]; dose 3000 μg/kg, 8 hr): 6570 ng/mL
Mean BisEDT Conc, whole blood ([4]; dose 3000 μg/kg, 24 hr): 20525 ng/mL

C[C@@H](O)[C@H]1C(=O)N2C(C(=O)O)=C(S[C@@H]3CN[C@H](C(=O)N(C)C)C3)[C@H](C)[C@H]12 [MEM]
MIC (Pseudomonas aeruginosa; P. aeruginosa ATCC 27853, ATCC QC organism (Table 102)): 0.25 µg/mL (≈ 0.652 µM)
MIC (Pseudomonas aeruginosa; P. aeruginosa CDC 230, VIM/OXA): >8 µg/mL
MIC (Pseudomonas aeruginosa; P. aeruginosa CDC 231, KPC/OXA): >8 µg/mL
MIC (Pseudomonas aeruginosa; P. aeruginosa CDC 241, IMP/OXA): >8 µg/mL
MIC (Pseudomonas aeruginosa; P. aeruginosa CDC 246, NDM/OXA): >8 µg/mL
MIC (Pseudomonas aeruginosa; P. aeruginosa CDC 250, NDM/OXA): >8 µg/mL
MIC (Pseudomonas aeruginosa; P. aeruginosa CDC 356, KPC): >8 µg/mL
MIC (Pseudomonas aeruginosa; P. aeruginosa CDC 439, IMP): >8 µg/mL
MIC (Pseudomonas aeruginosa; P. aeruginosa CDC 444, VIM): >8 µg/mL
MIC (Pseudomonas aeruginosa; P. aeruginosa CDC 457, VIM): >8 µg/mL
MIC (Pseudomonas aeruginosa; P. aeruginosa CDC 516, KPC/AmpC): >8 µg/mL
MIC (Pseudomonas aeruginosa; P. aeruginosa CDC 518, KPC/AmpC): >8 µg/mL
CLSI Quality Control Range (MIC) [5]: (0.25-1)
